{"source": "patent US20040044006A1", "about": "“Methods of use of quinolone compounds against pneumococcal and haemophilus bacteria” (priority 1999, published 2004)", "key": {"[1]": {"test_system": "pneumococci with ciprofloxacin MICs ≧8 μg/ml", "assay": "Quinolone agar dilution MICs of 28 ciprofloxacin resistant pneumococcal strains, correlated with QRDR mutations", "format": "cell-based, Streptococcus pneumoniae", "procedure": "Additionally these strains were tested for mutations in parC, gyrA, parE, and gyrB (Pan, et al. Antimicrob. Agents Chemother. 40:2321-2326, 1996) and for efflux mechanism (Brenwald, et ail., Antimicrob. Agents Chemother. 42:2032-2035, 1998).\nGemifloxacin susceptibility powder was obtained from SmithKline Beecham Laboratories, Harlow, UK. Agar dilution methodology was performed on 28 strains as described previously (M. R. Jacobs, Clin. Infect. Dis. 15: 119-127, […] and M. R. Jacobs, Rev. Med. Microbiol. 6:77-93, 1995), using Mueller-Hinton altar (BBL Microbiology Systems, Cockeysville, Md.) supplemented with 5% sheep blood. Standard quality control strains, including Streptococcus pneumoniae ATCC 49619, were included in each run of agar dilution MICs."}, "[2]": {"test_system": "penicillin susceptible and resistant pneumococcal strains (2 quinolone resistant)", "assay": "Time-kill testing of 12 pneumococcal strains", "format": "cell-based, Streptococcus pneumoniae", "procedure": "For time-kill studies, glass tubes containing 5 ml cation-adjusted Mueller-Hinton broth (Difco)+5% lysed horse blood with doubling antibiotic concentrations were inoculated with 5×10^5 to 5×10^6 cfu/ml and incubated at 35° C. in a shaking water bath. […] Growth controls with inoculum but no antibiotic were included with each experiment (Pankuch, et al., Antimicrob. Agents Chemother. 38:2065-2072, 1994; Pankuch, et al., Antimicrob. Agents Chemother. 40:1653-1656, 1996).\nLysed horse blood was prepared as described previously. The bacterial inoculum was prepared by diluting a 16 h broth (medium as above) culture in the same medium. Dilutions required to obtain the correct inoculum (5×10^5-5×10^6 cfu/ml) were determined by prior viability studies using each strain (Pankuch, et al., Antimicrob. Agents Chemother. 38:2065-2072, 1994; Pankuch, et al., Antimicrob. Agents Chemother. 40: 1653-1656, 1996).\nTo inoculate each tube of serially diluted antibiotic, 50 μl of diluted inoculum was delivered by pipette beneath the surface of the broth. Tubes were then vortexed and plated for viability counts within 10 min (approximately 0.2 h). The original inoculum was determined by using the untreated growth control. Only tubes containing an initial inoculum within the range of 5×10^5 to 5×10^6 cfu/ml were acceptable (Pankuch, et al., Antimicrob. Agents Chemother. 38:2065-2072, 1994; Pankuch, et al., Antimicrob. Agents Chemother. 40:1653-1656, 1996).\nViability counts of antibiotic-containing suspensions were performed by plating ten-fold dilutions of 0.1 ml aliquots from each tube in sterile Mueller-t-Hinton broth onto trypticase soy agar 5% sheep blood agar plates (BBL). Recovery plates were incubated for up to 72 h. Colony Counts were performed on plates yielding 30-300 colonies. The lower limit of sensitivity of colony counts was 300 cfu/ml (Pankuch, et al., Antimicrob. Agents Chemother. 38:2065-2072, 1994; Pankuch, et al., Antimicrob. Agents Chemother. 40:1653-1656, 1996).\nTime-kill assays were analysed by determining the number of strains which yielded a log10 cfu/ml of −1, −2 and −3 at 0, 3, 6, 12 and 24 h, compared to counts at time 0 h. Antimicrobials were considered bactericidal at the lowest concentration that reduced the original inoculum by ≧3 log10 cfu/ml (99.9%) at each of the time periods, and bacteriostatic if the inoculum was reduced by 0-3 log10 cfu/ml. […] The problem of bacterial carryover was addressed as described previously. For macrolide time-kill testing, only strains with MICs≦4.0 μg/ml were tested (Pankuch, et al., Antimicrob. Agents Chemother. 38:2065-9072, 1994; Pankuch, et al., Antimicrob. Agents Chemother. 40:1653-1656, 1996)."}}, "note": "Where two headings read alike, the source gives them in different places."}
{"smiles": "N[C@@H]1[C@H]2CN(c3nc4c(cc3F)c(=O)c(C(=O)O)cn4-c3ccc(F)cc3F)C[C@@H]12", "note": "[Trovafloxacin, trovafloxacin]", "values": [{"measurement": "MIC50", "setting": "[1]; Streptococcus pneumoniae", "value": 1, "unit": "µg/mL"}, {"measurement": "MIC90", "setting": "[1]; Streptococcus pneumoniae", "value": 4, "unit": "µg/mL"}, {"measurement": "MIC", "setting": "[1]; Streptococcus pneumoniae, read-out: MICs in strains with three or four QRDR mutations, 20 strains, bound holds in all 20 (ciprofloxacin, levofloxacin, sparfloxacin), 19 (grepafloxacin), 10 (trovafloxacin), 18 (gemifloxacin)", "value": "> 2", "unit": "µg/mL"}, {"measurement": "MIC", "setting": "[1]; Streptococcus pneumoniae, read-out: MICs in strains with three or four QRDR mutations, 21 strains, bound holds in all 21 (ciprofloxacin, levofloxacin, sparfloxacin), 20 (grepafloxacin), 11 (trovafloxacin), 19 (gemifloxacin)", "value": "≥ 2", "unit": "µg/mL"}, {"measurement": "MIC", "setting": "[1]; Streptococcus pneumoniae, strain 1, ParC S79-F, ParE I460-V, GyrA S81-F, GyrB None", "value": 2, "unit": "µg/mL"}, {"measurement": "MIC", "setting": "[1]; Streptococcus pneumoniae, strain 1, ParC S79-F, ParE I460-V, GyrA S83-F, GyrB None", "value": 2, "unit": "µg/mL"}, {"measurement": "MIC", "setting": "[1]; Streptococcus pneumoniae, strain 2, ParC S79-Y, ParE I460-V, GyrA None, GyrB None", "value": 0.25, "unit": "µg/mL"}, {"measurement": "MIC", "setting": "[1]; Streptococcus pneumoniae, strain 3, ParC D83-N, ParE I460-V, GyrA S81-F, GyrB None", "value": 0.25, "unit": "µg/mL"}, {"measurement": "MIC", "setting": "[1]; Streptococcus pneumoniae, strain 3, ParC D83-N, ParE I460-V, GyrA S83-F, GyrB None", "value": 0.25, "unit": "µg/mL"}, {"measurement": "MIC", "setting": "[1]; Streptococcus pneumoniae, strain 4, ParC S79-F, ParE I460-V, GyrA S81-F, GyrB None", "value": 0.25, "unit": "µg/mL"}, {"measurement": "MIC", "setting": "[1]; Streptococcus pneumoniae, strain 4, ParC S79-F, ParE I460-V, GyrA S83-F, GyrB None", "value": 0.25, "unit": "µg/mL"}, {"measurement": "MIC", "setting": "[1]; Streptococcus pneumoniae, strain 5, ParC R95-C, ParE D435-N, GyrA S81-F, GyrB None", "value": 0.25, "unit": "µg/mL"}, {"measurement": "MIC", "setting": "[1]; Streptococcus pneumoniae, strain 5, ParC R95-C, ParE D435-N, GyrA S83-F, GyrB None", "value": 0.25, "unit": "µg/mL"}, {"measurement": "MIC", "setting": "[1]; Streptococcus pneumoniae, strain 6, ParC S79-Y, ParE I460-V, GyrA E85-K, GyrB None", "value": 2, "unit": "µg/mL"}, {"measurement": "MIC", "setting": "[1]; Streptococcus pneumoniae, strain 6, ParC S79-Y, ParE I460-V, GyrA E87-K, GyrB None", "value": 2, "unit": "µg/mL"}, {"measurement": "MIC", "setting": "[1]; Streptococcus pneumoniae, strain 7, ParC None, ParE I460-V, GyrA None, GyrB None", "value": 0.5, "unit": "µg/mL"}, {"measurement": "MIC", "setting": "[1]; Streptococcus pneumoniae, strain 8, ParC S79-Y, ParE None, GyrA None, GyrB None", "value": 0.5, "unit": "µg/mL"}, {"measurement": "MIC", "setting": "[1]; Streptococcus pneumoniae, strain 9, ParC S79-Y, ParE None, GyrA None, GyrB None", "value": 1, "unit": "µg/mL"}, {"measurement": "MIC", "setting": "[1]; Streptococcus pneumoniae, strain 10, ParC S79-F, ParE I460-V, GyrA S81-C, GyrB None", "value": 1, "unit": "µg/mL"}, {"measurement": "MIC", "setting": "[1]; Streptococcus pneumoniae, strain 10, ParC S79-F, ParE I460-V, GyrA S83-C, GyrB None", "value": 1, "unit": "µg/mL"}, {"measurement": "MIC", "setting": "[1]; Streptococcus pneumoniae, strain 11, ParC S79-F, ParE I460-V, GyrA S81-F, GyrB None", "value": 1, "unit": "µg/mL"}, {"measurement": "MIC", "setting": "[1]; Streptococcus pneumoniae, strain 11, ParC S79-F, ParE I460-V, GyrA S83-F, GyrB None", "value": 1, "unit": "µg/mL"}, {"measurement": "MIC", "setting": "[1]; Streptococcus pneumoniae, strain 12, ParC S79-F, ParE I460-V, GyrA None, GyrB D435-N", "value": 1, "unit": "µg/mL"}, {"measurement": "MIC", "setting": "[1]; Streptococcus pneumoniae, strain 13, ParC S79-F, ParE I460-V, GyrA None, GyrB E474-K", "value": 1, "unit": "µg/mL"}, {"measurement": "MIC", "setting": "[1]; Streptococcus pneumoniae, strain 14, ParC S79-F, ParE I460-V, GyrA S81-F, GyrB None", "value": 1, "unit": "µg/mL"}, {"measurement": "MIC", "setting": "[1]; Streptococcus pneumoniae, strain 14, ParC S79-F, ParE I460-V, GyrA S83-F, GyrB None", "value": 1, "unit": "µg/mL"}, {"measurement": "MIC", "setting": "[1]; Streptococcus pneumoniae, strain 15, ParC 79-F, ParE I460-V, GyrA S83-F, GyrB None", "value": 1, "unit": "µg/mL"}, {"measurement": "MIC", "setting": "[1]; Streptococcus pneumoniae, strain 15, ParC S79-F, ParE I460-V, GyrA S81-F, GyrB None", "value": 1, "unit": "µg/mL"}, {"measurement": "MIC", "setting": "[1]; Streptococcus pneumoniae, strain 16, ParC S79-F, ParE I460-V, GyrA S81-F, GyrB None", "value": 2, "unit": "µg/mL"}, {"measurement": "MIC", "setting": "[1]; Streptococcus pneumoniae, strain 16, ParC S79-F, ParE I460-V, GyrA S83-F, GyrB None", "value": 2, "unit": "µg/mL"}, {"measurement": "MIC", "setting": "[1]; Streptococcus pneumoniae, strain 17, ParC D83-N, ParE None, GyrA S81-F, GyrB None", "value": 2, "unit": "µg/mL"}, {"measurement": "MIC", "setting": "[1]; Streptococcus pneumoniae, strain 17, ParC D83-N, ParE None, GyrA S83-F, GyrB None", "value": 2, "unit": "µg/mL"}, {"measurement": "MIC", "setting": "[1]; Streptococcus pneumoniae, strain 18, ParC S79-F, ParE I460-V, GyrA S81-F, GyrB None", "value": 2, "unit": "µg/mL"}, {"measurement": "MIC", "setting": "[1]; Streptococcus pneumoniae, strain 18, ParC S79-F, ParE I460-V, GyrA S83-F, GyrB None", "value": 2, "unit": "µg/mL"}, {"measurement": "MIC", "setting": "[1]; Streptococcus pneumoniae, strain 19, ParC S79-F, ParE I460-V, GyrA S81-F, GyrB None", "value": 2, "unit": "µg/mL"}, {"measurement": "MIC", "setting": "[1]; Streptococcus pneumoniae, strain 19, ParC S79-F, ParE I460-V, GyrA S83-F, GyrB None", "value": 2, "unit": "µg/mL"}, {"measurement": "MIC", "setting": "[1]; Streptococcus pneumoniae, strain 20, ParC S79-F, ParE I460-V, GyrA E85-K, GyrB None", "value": 2, "unit": "µg/mL"}, {"measurement": "MIC", "setting": "[1]; Streptococcus pneumoniae, strain 20, ParC S79-F, ParE I460-V, GyrA E87-K, GyrB None", "value": 2, "unit": "µg/mL"}, {"measurement": "MIC", "setting": "[1]; Streptococcus pneumoniae, strain 21, ParC S79-F, ParE I460-V, GyrA S81-F, GyrB None", "value": 1, "unit": "µg/mL"}, {"measurement": "MIC", "setting": "[1]; Streptococcus pneumoniae, strain 21, ParC S79-F, ParE I460-V, GyrA S83-F, GyrB None", "value": 1, "unit": "µg/mL"}, {"measurement": "MIC", "setting": "[1]; Streptococcus pneumoniae, strain 22, ParC S79-F, ParE I460-V, GyrA S81-Y, GyrB None", "value": 2, "unit": "µg/mL"}, {"measurement": "MIC", "setting": "[1]; Streptococcus pneumoniae, strain 22, ParC S79-F, ParE I460-V, GyrA S83-Y, GyrB None", "value": 2, "unit": "µg/mL"}, {"measurement": "MIC", "setting": "[1]; Streptococcus pneumoniae, strain 23, ParC S79-Y, ParE None, GyrA S81-A, GyrB None", "value": 2, "unit": "µg/mL"}, {"measurement": "MIC", "setting": "[1]; Streptococcus pneumoniae, strain 23, ParC S79-Y, ParE None, GyrA S83-A, GyrB None", "value": 2, "unit": "µg/mL"}, {"measurement": "MIC Range", "setting": "[1]; agar dilution, 28 strains with ciprofloxacin MICs ≧8.0 μg/ml", "value": "0.25 to 8", "unit": "µg/mL"}, {"measurement": "concentration at which bactericidal after 24 h", "setting": "[2]; 12 penicillin susceptible and resistant pneumococcal strains, 24 h, bactericidal = ≧3 log10 cfu/ml (99.9%) reduction", "value": 4, "unit": "×MIC"}, {"measurement": "bactericidal activity for the two quinolone resistant pneumococcal strains", "setting": "[2]; two quinolone resistant strains", "value": "bactericidal at the microbroth MIC"}]}
